Read-outs that look alike come from different tables or passages of the source.
Assays:
[1] = for Bendamustine solubility: 5° C.
Procedure: Samples were then refrigerated at 5° C. and inspected after 0, 3, 6 and 24 hours for particulates and/or precipitates.

[2] = Fisher esterification conditions: formation of t-butyl ester of bendamustine in TBA; format: physicochemical; conditions: heated in 60° C. TBA with HCl for 20 hours
Procedure: Experiments were performed using traditional Fisher esterification reaction conditions required for the formation of t-butyl ester of bendamustine. Bendamustine was heated in 60° C. TBA with HCl for 20 hours.

Cl.Cn1c(CCCC(=O)O)nc2cc(N(CCCl)CCCl)ccc21 [bendamustine, 4-{5-[Bis(2-chloroethyl)amino]-1-methyl-2-benzimidazolyl}butyric acid]
saturation limit (20% (v/v) TBA, 5° C.): 17.2 mg/mL | concentration of saturated solution (30% TBA/water, 0° C.): 18000 µg/mL | Bendamustine solubility ([1]; 0% (Water Only), 6 Hours): Precipitate | Bendamustine solubility ([1]; 0% (Water Only), 24 Hours): Precipitate | precipitation ([1]; 15 mg/mL bendamustine, 5% and 10% ethanol and TBA without mannitol, over 24 hours): did not precipitate | Bendamustine solubility ([1]; 1.9% Ethanol (v/v), 6 Hours): Precipitate | Bendamustine solubility ([1]; 1.9% Ethanol (v/v), 24 Hours): Precipitate | Bendamustine solubility ([1]; 5% Ethanol (v/v), 6 Hours): Precipitate | Bendamustine solubility ([1]; 5% Ethanol (v/v), 24 Hours): Precipitate | Bendamustine solubility ([1]; 5% Iso-propanol (v/v), 3 Hours): Precipitate | Bendamustine solubility ([1]; 5% Iso-propanol (v/v), 6 Hours): Precipitate | Bendamustine solubility ([1]; 5% Iso-propanol (v/v), 24 Hours): Precipitate | Bendamustine solubility ([1]; 5% Methanol (v/v), 6 Hours): Precipitate | Bendamustine solubility ([1]; 5% Methanol (v/v), 24 Hours): Precipitate | Bendamustine solubility ([1]; 5% Tert-Butanol (v/v), 24 Hours): Precipitate | Bendamustine solubility ([1]; 5% n-Propanol (v/v), 24 Hours): Precipitate | Bendamustine solubility ([1]; 10% Ethanol (v/v), 24 Hours): Precipitate | Bendamustine solubility ([1]; 10% Methanol (v/v), 24 Hours): Precipitate | Bendamustine solubility ([1]; 10% Tert-Butanol (v/v), 24 Hours): Precipitate | Bendamustine solubility ([1]; 20% Methanol (v/v), 24 Hours): Precipitate | Bendamustine solubility ([1]; 20% n-Butanol (v/v), 3 Hours): 2 layers | Bendamustine solubility ([1]; 20% n-Butanol (v/v), 6 Hours): 2 layers | Bendamustine solubility ([1]; 20% n-Butanol (v/v), 24 Hours): 2 layers | Bendamustine solubility ([1]; 20% n-Butanol (v/v), Zero Time): 2 layers | Bendamustine solubility ([1]; 30% n-Butanol (v/v), 3 Hours): 2 layers | Bendamustine solubility ([1]; 30% n-Butanol (v/v), 6 Hours): 2 layers | Bendamustine solubility ([1]; 30% n-Butanol (v/v), 24 Hours): 2 layers | Bendamustine solubility ([1]; 30% n-Butanol (v/v), Zero Time): 2 layers | formation of t-butyl ester [2]: No reaction was observed

From US8895756B2, “Bendamustine pharmaceutical compositions” (priority 2005, dated 2014)
